Columns and labels:
CHO/APPwt cells = assay: APP processing and cell surface protein expression in CHO/APPwt cells (ELISA, WB, biotinylation, flow cytometry, confocal microscopy); format: cell-based, Chinese hamster
Method: In addition, full-length APP (f-APP, short and long exp, exposure), α/β-CTF and total APP in cell lysates were analyzed by WB using anti-C-terminal APP750/70 (pC-APP, left panel, FIG. 23C) and anti-N-terminal APP antibody (6E10, right panel, FIG. 23C). Cell lysates were also biotinylated and immunoprecipitated using Neutravidin beads and intracellular proteins obtained by Neutravidin depletion (intra) and cell surface proteins obtained by Neutravidin precipitation (cell surf) were analyzed for f-APP, LDLR and LRP1 by WB using 6E10, anti-LDLR and anti-LRP1 (FIG. 23D). Band density ratios of cell surf or intra to total f-APP was determined by densitometry analysis (FIG. 23E). Cellular membrane associated full-length APP was analyzed by flow cytometry and presented as means±s.d. median FL-1-A (FIG. 23F). […] Asterisk indicates P<0.05 compared with Ctrl as determined by t test.
In addition, some of the cells were biotinylated, cell lysates were immunoprecipitated using Neutravidin beads and cell surface (cell surf) proteins obtained by Neutravidin precipitation, intracellular (intra) proteins obtained by Neutravidin depletion and total proteins were analyzed for full-length APP by WB using pC-APP (pAPP751/770) (FIG. 27B). […]

CHO/APPswe cells = assay: Aβ and β-CTF in CHO/APPwt compared with CHO/APPswe cells; format: cell-based, Chinese hamster; conditions: apoE4 0, 5, 10 μg/mL or 6KApoEp 0, 5, 10 μM, 2 h, serum-free medium
Method: CHO cells engineered to express human wild-type APP (CHO/APPwt) or Swedish mutant APP (CHO/APPswe) were obtained. These cells were cultured in 96 or 24 well plates at 4×10^4 or 2×10^5 cells/well, respectively, in Dulbecco's modified Eagle's medium (DMEM) with 10% fetal bovine serum, 1 mM sodium pyruvate and 100 U/mL of penicillin/streptomycin (Invitrogen, Thermo Fisher Scientific). In addition, murine N2a cells transfected with APPwt (N2a/APPwt were obtained), SH-SY5Y cells transfected with APPswe and wild-type SH-SY5Y cells (ATCC, Manassas, Va.) were cultured as previously described^42. Primary hN2TM human neurons (Neuromics, Edina, Minn.) were cultured in hN2TM human neuron culture media and primary HCN2 human neurons (ATCC) were cultured in DMEM with 4 mM L-glutamine adjusted to contain 1.5 g/L sodium bicarbonate, 4.5 g/L glucose, fetal bovine serum (10%).

ApoE4: human recombinant apolipoprotein E4 protein (BioVision)
Aβ, β-CTF and sAPPα levels (CHO/APPwt cells; 6KApoEp 10 μM, apoE4 10 μg/mL, 2 h): markedly increased Aβ and β-CTF levels, while reducing sAPPα levels
cell surface protein levels of LDLR or LRP1 (CHO/APPwt cells; absence or presence of β- or γ-secretase inhibitors): did not alter cell surface protein levels of LDLR or LRP1
Aβ and β-CTF levels in CHO/APPwt compared with CHO/APPswe cells (CHO/APPswe cells): enhanced Aβ and β-CTF levels much more in CHO/APPwt cells compared with CHO cells overexpressing APP with the Swedish mutation

Source: US20190185544A1, “COMPOSITIONS AND METHODS OF MODULATING ABETA PROTEIN” (University of South Florida, priority 2016, published 2019)
